Assay results as given in ChEMBL document CHEMBL3244077, “Sycnthesis of quinazoline analogues of folic acid modified at postion 10” (J Med Chem, 1977).

Legend:
L1210 [1] = assay: Antitumor activity against mouse L1210 cells allografted in mouse assessed as increase in host survival at 100 mg/kg, ip administered as single dose on day 1 following tumor implantation; type: functional; conditions: 24 h, route intraperitoneal
L1210 [2] = assay: Antitumor activity against mouse L1210 cells allografted in mouse assessed as increase in host survival at 150 mg/kg, ip administered as single dose on day 1 following tumor implantation; type: functional; conditions: 24 h, route intraperitoneal
Mus musculus = assay: Acute toxicity in mouse […] with mouse L1210 cells at 150 mg/kg, ip administered as single dose on day 1 following tumor implantation; type: organism-based; parameters: dose 150 mg/kg, route intraperitoneal; conditions: in vivo
L1210 [3] = assay: Antitumor activity against mouse L1210 cells allografted in mouse assessed as increase in host survival at 75 mg/kg, ip administered as single dose on day 1 following tumor implantation; type: functional; conditions: 24 h, route intraperitoneal
L1210 [4] = assay: Antitumor activity against mouse L1210 cells allografted in mouse assessed as increase in host survival at 200 mg/kg, ip administered as single dose on day 1 following tumor implantation; type: functional; conditions: 24 h, route intraperitoneal
L1210 [5] = assay: Antitumor activity against mouse L1210 cells allografted in mouse assessed as increase in host survival at 50 mg/kg, ip administered as single dose on day 1 following tumor implantation; type: functional; conditions: 24 h, route intraperitoneal
L1210 [6] = assay: Antitumor activity against mouse L1210 cells allografted in mouse assessed as increase in host survival at 25 mg/kg, ip administered as single dose on day 1 following tumor implantation; type: functional; conditions: 24 h, route intraperitoneal

| Structure (SMILES) | survival at 100 mg/kg (L1210 [1]) [%] | survival at 150 mg/kg (L1210 [2]) [%] | Activity (Mus musculus) | survival at 75 mg/kg (L1210 [3]) [%] | survival at 200 mg/kg (L1210 [4]) [%] | survival at 50 mg/kg (L1210 [5]) [%] | survival at 25 mg/kg (L1210 [6]) [%] |
| --- | --- | --- | --- | --- | --- | --- | --- |
| Nc1nc(O)c2cc(CSc3ccc(C(=O)N[C@@H](CCC(=O)O)C(=O)O)cc3)ccc2n1 | 9 | 22 | Non-toxic | – | – | – | – |
| Nc1nc(O)c2cc(COc3ccc(C(=O)N[C@@H](CCC(=O)O)C(=O)O)cc3)ccc2n1 | – | 28 | Non-toxic | 6 | 14 | – | – |
| Nc1nc(O)c2cc(CCc3ccc(C(=O)N[C@@H](CCC(=O)O)C(=O)O)cc3)ccc2n1 | – | 23 | Non-toxic | 18 | – | 14 | – |
| CN(Cc1cnc2nc(N)nc(N)c2n1)c1ccc(C(=O)N[C@@H](CCC(=O)O)C(=O)O)cc1 [METHOTREXATE] | 81 | – | – | 48 | – | 61 | 68 |
